Data reported in ChEMBL document CHEMBL1201862, “PubChem BioAssay data set” (2004).
Where a name gives a salt, the structure may show the parent alone.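 Results reflect a 48-hour exposure of cells in 96-well plates to compound at five concentrations. GI50 = concentration required for 50% inhibition of growth.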 Activity calls are given as the source filed them. No stated cut-off is given here; in the data, active = GI50 up to about 1.1 µM and inactive = higher.

What was measured:
Experiment in all cases: NCI anticancer screen, dose series, 48 h
DU-145 = tested on: DU-145
MDA-N = tested on: MDA-N
MDA-MB-435 = tested on: MDA-MB-435
PC-3 = tested on: PC-3
T47D = tested on: T47D
BT-549 = tested on: BT-549
786-0 = tested on: 786-0
LXFL 529 = tested on: LXFL 529
RXF 631 = tested on: RXF 631

COc1ccc(N2C(=O)C3c4[nH]c5cc(C)ccc5c4C4CCC(C(C)(C)C)CC4C3C2=O)cc1 (centres undefined)
GI50 (DU-145): > 10 µM (inactive)
GI50 (MDA-N): > 10 µM (inactive)
GI50 (MDA-MB-435): > 10 µM (inactive)
GI50 (PC-3): 5.24 µM (inactive)
GI50 (T47D): > 10 µM (inactive)

O=C(O)CN1CCCC(Cc2c[nH]c3ccccc23)C1 (centres undefined)
GI50 (DU-145): > 100 µM (inactive)
GI50 (MDA-N): > 100 µM (inactive)
GI50 (MDA-MB-435): > 100 µM (inactive)
GI50 (PC-3): > 100 µM (inactive)
GI50 (BT-549): > 100 µM (inactive)

O=C(O)c1cccc2cccc(-c3c4ccc(=O)cc-4oc4cc(O)ccc34)c12
GI50 (DU-145): > 100 µM (inactive)
GI50 (MDA-N): 71 µM (inactive)
GI50 (MDA-MB-435): > 100 µM (inactive)
GI50 (PC-3): > 100 µM (inactive)
GI50 (T47D): > 100 µM (inactive)
GI50 (BT-549): > 100 µM (inactive)

CC1CC2C3CC(F)C4=CC(=O)C=CC4(C)C3(F)C(O)CC2(C)C1(O)C(=O)COC(=O)C(C)(C)C (centres undefined)
GI50 (786-0): 68.1 µM (inactive)

CC(=O)N/C(=C\c1ccc(/C=C(\NC(C)=O)C2=NC3C(=O)c4ccccc4C(=O)C3N2)cc1)C1=NC2C(=O)c3ccccc3C(=O)C2N1 (centres undefined)
GI50 (LXFL 529): 42.4 µM (inactive)
GI50 (RXF 631): 19.7 µM (inactive)

O=C1c2ccccc2C(=O)c2c1ccc1c2N=C(c2ccc(F)cc2)CC(c2ccc(Cl)c(Cl)c2)N1 (centres undefined)
GI50 (LXFL 529): 16 µM (inactive)

NC(=O)Nc1cc(O)ccc1/N=N/c1ccc(S(=O)(=O)Nc2ccccn2)cc1
GI50 (LXFL 529): > 100 µM (inactive)

CCC1C[N+]23CCc4c([nH]c5ccccc45)C2CC1CC3 (centres undefined)
GI50 (LXFL 529): 33.8 µM (inactive)

Nc1ccc2cc3ccc(N)cc3nc2c1 [PROFLAVINE SULFATE]
GI50 (DU-145): 2.21 µM (inactive)
GI50 (MDA-N): 1.21 µM (inactive)
GI50 (MDA-MB-435): 1.48 µM (inactive)
GI50 (LXFL 529): 0.953 µM (active)
GI50 (RXF 631): 1.12 µM (inactive)
GI50 (T47D): 1.59 µM (inactive)
GI50 (BT-549): 3.19 µM (inactive)
